Results taken from patent US4681871A, “Pharmacologically active peptides” (priority 1979, dated 1987).
Ends that are not written are not given here. Peptide text beside a SMILES is read from it.

Tests used:
[1] = test system: Pronase E (Merck); assay: resistance against proteases (Pronase E incubation, then opiate test); format: in vitro ADME; settings: 0.02 mg Pronase E, tris-buffer pH 8, 37° C., 1 to 4 hours; compared with control without enzyme
Method: As proof of the resistance against proteases we would like to cite an example: 0.3 mg β-casomorphin-7 was incubated in 0.6 ml tris-buffer pH 8 with 0.02 mg Pronase E (Merck) at 37° C. for 1 to 4 hours. After the end of the incubation, the mixture, for the purpose of destroying the Pronase, was heated at 95° C. for 15 minutes.

[2] = test system: longitudinal muscle plexusmyentericus preparation of guinea pig ileum; assay: opiate-like activity on electrically stimulated guinea pig ileum preparation; format: cell-based; settings: guinea pig intestine preparation; naloxon-reversible restriction of contractions

Compound | loss of opiate activity after protease incubation [1] | opiate-like activity [2]
methionine-enkephalin [reference compound] | completely lost the opiate activity | 
COC(=O)CNC(=O)[C@@H]1CCCN1C(=O)[C@H](Cc1ccccc1)NC(=O)[C@@H]1CCCN1 [end product 4b, Pro-Phe-Pro-Gly-metester] (H-PFPG-OMe) |  | did not result in any opiate-like activity
COC(=O)CNC(=O)[C@@H]1CCCN1C(=O)[C@H](Cc1ccccc1)NC(=O)[C@@H]1CCCN1C(=O)[C@@H](N)Cc1ccc(O)cc1 [Tyr-Pro-Phe-Pro-Gly-methyl ester] (H-YPFPG-OMe) |  | strong specific opiate-like activity
casein |  | neither the casein itself nor its chloroform/methanol (65/35, vol/vol) extracts, shows a pharmacological, in this case an opiate-like, activity
YPFPGPI [β-casomorphin-7, Tyr-Pro-Phe-Pro-Gly-Pro-Ile] | did not result in any loss of opiate activity | 
